We go through two compounds from EP0900076B1, “TRANSDERMAL DEVICE” (priority 1996, dated 1997).

The nature of series [1]: clinical. The settings on record: human, in vivo, 100 mg.
Series [2] is described as follows: clinical. The settings on record: female, human, in vivo, 100 mg.
The conditions of series [3]: 10 mg morphine, end of the 24 hour delivery, mean; cited from earlier work.
For series [4] the following is noted: postoperative monitoring during the test period.
Series [5] in a line: Example 2: transdermal morphine after elective coronary surgery, amount absorbed from the drug cell. The settings on record: after 48 hours, of the initial 100 mg.

In series [1], `CN1CC[C@]23c4c5ccc(O)c4O[C@H]2[C@@H](O)C=C[C@H]3[C@H]1C5` [Morphine acetate] had a concentration at 0 h of 0 nM, a concentration at 1 h of 53 nM, a concentration at 2 h of 112 nM and a concentration at 3 h of 115 nM. In series [1], this compound gave a concentration at 3.5 h of 154 nM and a concentration at 4 h of 162 nM.
On to `CN1CC[C@]23c4c5ccc(O)c4O[C@H]2[C@@H](O)C=C[C@H]3[C@H]1C5` [Morphine], for which, in series [2], the concentration at 1 h worked out at 8 ± 3.5 nM, the concentration at 32 h is 9.8 ± 3.8 nM and the concentration at 48 h is 8.5 ± 1.7 nM. Besides, in series [3], the “amount of drug in the reservoir was reduced” value is listed as 75 per cent. In addition, the oxygen saturation entry in series [4] was “remained normal”. The “morphine dose in the drug cell found to be absorbed” value in series [5] is listed as 32 ± 6 mg.
